Measurements from patent US11952584B2, “Functional peptides having antimicrobial activity against phytopathogenic microorganisms” (TOYOTA JIDOSHA KABUSHIKI KAISHA, priority 2019, dated 2024).
Several values for one entry are separate records, joined by “and”; a condition that tells them apart may be missing. Identical values can stand only once. Like-named read-outs stand apart in the source and are kept apart here.

Legend:
Type in all cases: cell-based
[1] = tested on: Colletotrichum destructivum; conditions: 25° C., 1 day or 2 days
Pyricularia oryzae = conditions: 25° C., 1 day or 2 days
Botrytis cinerea = conditions: 25° C., 1 day or 2 days
Fusarium oxysporum = tested on: Fusarium oxysporum
[2] = tested on: Colletotrichum orbiculare; conditions: 25° C., 1 day or 2 days

## GFPAFSER (listed as Solanum lycopersicum) [TsORF18-2-8aa-3]
[1]; peptide 1 μM
  Plate antimicrobial activity test Colletotrichum destructivum (level): 0
[1]; peptide 10 μM
  Plate antimicrobial activity test Colletotrichum destructivum (level): 0
[1]; peptide 100 μM
  Plate antimicrobial activity test Colletotrichum destructivum (level): 0
Pyricularia oryzae; peptide 1 μM
  Plate antimicrobial activity test Pyricularia oryzae (level): 0
Pyricularia oryzae; peptide 10 μM
  Plate antimicrobial activity test Pyricularia oryzae (level): 0
Pyricularia oryzae; peptide 100 μM
  Plate antimicrobial activity test Pyricularia oryzae (level): 0
Botrytis cinerea; peptide 1 μM
  Plate antimicrobial activity test Botrytis cinerea (level): 0
Botrytis cinerea; peptide 10 μM
  Plate antimicrobial activity test Botrytis cinerea (level): 0
Botrytis cinerea; peptide 100 μM
  Plate antimicrobial activity test Botrytis cinerea (level): 0
Fusarium oxysporum
  Plate antimicrobial activity test Fusarium oxysporum (level): 0
[2]; peptide 1 μM
  Plate antimicrobial activity test Collectotrichum orbiculare (level): 0
[2]; peptide 10 μM
  Plate antimicrobial activity test Collectotrichum orbiculare (level): 0
[2]; peptide 100 μM
  Plate antimicrobial activity test Collectotrichum orbiculare (level): 0

## FSERT (listed as Solanum lycopersicum) [TsORF18-2-5aa-7]
[1]; peptide 1 μM
  Plate antimicrobial activity test Colletotrichum destructivum (level): 0
[1]; peptide 10 μM
  Plate antimicrobial activity test Colletotrichum destructivum (level): 0
[1]; peptide 100 μM
  Plate antimicrobial activity test Colletotrichum destructivum (level): 0
Pyricularia oryzae; peptide 1 μM
  Plate antimicrobial activity test Pyricularia oryzae (level): 0
Pyricularia oryzae; peptide 10 μM
  Plate antimicrobial activity test Pyricularia oryzae (level): 0
Pyricularia oryzae; peptide 100 μM
  Plate antimicrobial activity test Pyricularia oryzae (level): 0
Botrytis cinerea; peptide 1 μM
  Plate antimicrobial activity test Botrytis cinerea (level): 0
Botrytis cinerea; peptide 10 μM
  Plate antimicrobial activity test Botrytis cinerea (level): 0
Botrytis cinerea; peptide 100 μM
  Plate antimicrobial activity test Botrytis cinerea (level): 0
Fusarium oxysporum
  Plate antimicrobial activity test Fusarium oxysporum (level): 0
[2]; peptide 1 μM
  Plate antimicrobial activity test Collectotrichum orbiculare (level): 0
[2]; peptide 10 μM
  Plate antimicrobial activity test Collectotrichum orbiculare (level): 0
[2]; peptide 100 μM
  Plate antimicrobial activity test Collectotrichum orbiculare (level): 0

## ERTRK (listed as Solanum lycopersicum) [TsORF18-2-5aa-9]
[1]; peptide 1 μM
  Plate antimicrobial activity test Colletotrichum destructivum (level): 0
[1]; peptide 10 μM
  Plate antimicrobial activity test Colletotrichum destructivum (level): 0
[1]; peptide 100 μM
  Plate antimicrobial activity test Colletotrichum destructivum (level): 0
Pyricularia oryzae; peptide 1 μM
  Plate antimicrobial activity test Pyricularia oryzae (level): 0
Pyricularia oryzae; peptide 10 μM
  Plate antimicrobial activity test Pyricularia oryzae (level): 0
Pyricularia oryzae; peptide 100 μM
  Plate antimicrobial activity test Pyricularia oryzae (level): 0
Botrytis cinerea; peptide 1 μM
  Plate antimicrobial activity test Botrytis cinerea (level): 0
Botrytis cinerea; peptide 10 μM
  Plate antimicrobial activity test Botrytis cinerea (level): 0
Botrytis cinerea; peptide 100 μM
  Plate antimicrobial activity test Botrytis cinerea (level): 0
Fusarium oxysporum
  Plate antimicrobial activity test Fusarium oxysporum (level): 0
[2]; peptide 1 μM
  Plate antimicrobial activity test Collectotrichum orbiculare (level): 0
[2]; peptide 10 μM
  Plate antimicrobial activity test Collectotrichum orbiculare (level): 0
[2]; peptide 100 μM
  Plate antimicrobial activity test Collectotrichum orbiculare (level): 0

## RTRKF (listed as Solanum lycopersicum) [TsORF18-2-5aa-10]
[1]; peptide 1 μM
  Plate antimicrobial activity test Colletotrichum destructivum (level): 0
[1]; peptide 10 μM
  Plate antimicrobial activity test Colletotrichum destructivum (level): 0
[1]; peptide 100 μM
  Plate antimicrobial activity test Colletotrichum destructivum (level): 0
Pyricularia oryzae; peptide 1 μM
  Plate antimicrobial activity test Pyricularia oryzae (level): 0
Pyricularia oryzae; peptide 10 μM
  Plate antimicrobial activity test Pyricularia oryzae (level): 0
Pyricularia oryzae; peptide 100 μM
  Plate antimicrobial activity test Pyricularia oryzae (level): 0
Botrytis cinerea; peptide 1 μM
  Plate antimicrobial activity test Botrytis cinerea (level): 0
Botrytis cinerea; peptide 10 μM
  Plate antimicrobial activity test Botrytis cinerea (level): 0
Botrytis cinerea; peptide 100 μM
  Plate antimicrobial activity test Botrytis cinerea (level): 1
Fusarium oxysporum
  Plate antimicrobial activity test Fusarium oxysporum (level): 0
[2]; peptide 1 μM
  Plate antimicrobial activity test Collectotrichum orbiculare (level): 0
[2]; peptide 10 μM
  Plate antimicrobial activity test Collectotrichum orbiculare (level): 0
[2]; peptide 100 μM
  Plate antimicrobial activity test Collectotrichum orbiculare (level): 0

## RIWKGKTS (listed as Solanum lycopersicum) [TsORF18-2-8aa-16]
[1]; peptide 1 μM
  Plate antimicrobial activity test Colletotrichum destructivum (level): 0
[1]; peptide 10 μM
  Plate antimicrobial activity test Colletotrichum destructivum (level): 0
[1]; peptide 100 μM
  Plate antimicrobial activity test Colletotrichum destructivum (level): 0
Pyricularia oryzae; peptide 1 μM
  Plate antimicrobial activity test Pyricularia oryzae (level): 0
Pyricularia oryzae; peptide 10 μM
  Plate antimicrobial activity test Pyricularia oryzae (level): 0
Pyricularia oryzae; peptide 100 μM
  Plate antimicrobial activity test Pyricularia oryzae (level): 0
Botrytis cinerea; peptide 1 μM
  Plate antimicrobial activity test Botrytis cinerea (level): 0
Botrytis cinerea; peptide 10 μM
  Plate antimicrobial activity test Botrytis cinerea (level): 0
Botrytis cinerea; peptide 100 μM
  Plate antimicrobial activity test Botrytis cinerea (level): 2
Fusarium oxysporum
  Plate antimicrobial activity test Fusarium oxysporum (level): 1 and 0
[2]; peptide 1 μM
  Plate antimicrobial activity test Collectotrichum orbiculare (level): 0
[2]; peptide 10 μM
  Plate antimicrobial activity test Collectotrichum orbiculare (level): 0
[2]; peptide 100 μM
  Plate antimicrobial activity test Collectotrichum orbiculare (level): 1

## PAFSERTR (listed as Solanum lycopersicum) [TsORF18-2-8aa-5]
[1]; peptide 1 μM
  Plate antimicrobial activity test Colletotrichum destructivum (level): 0
[1]; peptide 10 μM
  Plate antimicrobial activity test Colletotrichum destructivum (level): 0
[1]; peptide 100 μM
  Plate antimicrobial activity test Colletotrichum destructivum (level): 0
Pyricularia oryzae; peptide 1 μM
  Plate antimicrobial activity test Pyricularia oryzae (level): 0
Pyricularia oryzae; peptide 10 μM
  Plate antimicrobial activity test Pyricularia oryzae (level): 0
Pyricularia oryzae; peptide 100 μM
  Plate antimicrobial activity test Pyricularia oryzae (level): 0
Botrytis cinerea; peptide 1 μM
  Plate antimicrobial activity test Botrytis cinerea (level): 0
Botrytis cinerea; peptide 10 μM
  Plate antimicrobial activity test Botrytis cinerea (level): 0
Botrytis cinerea; peptide 100 μM
  Plate antimicrobial activity test Botrytis cinerea (level): 0
Fusarium oxysporum
  Plate antimicrobial activity test Fusarium oxysporum (level): 0
[2]; peptide 1 μM
  Plate antimicrobial activity test Collectotrichum orbiculare (level): 0
[2]; peptide 10 μM
  Plate antimicrobial activity test Collectotrichum orbiculare (level): 0
[2]; peptide 100 μM
  Plate antimicrobial activity test Collectotrichum orbiculare (level): 0

## YYGFPAFS (listed as Solanum lycopersicum) [TsORF18-2-8aa-1]
[1]; peptide 1 μM
  Plate antimicrobial activity test Colletotrichum destructivum (level): 0
[1]; peptide 10 μM
  Plate antimicrobial activity test Colletotrichum destructivum (level): 0
[1]; peptide 100 μM
  Plate antimicrobial activity test Colletotrichum destructivum (level): 0
Pyricularia oryzae; peptide 1 μM
  Plate antimicrobial activity test Pyricularia oryzae (level): 0
Pyricularia oryzae; peptide 10 μM
  Plate antimicrobial activity test Pyricularia oryzae (level): 0
Pyricularia oryzae; peptide 100 μM
  Plate antimicrobial activity test Pyricularia oryzae (level): 0
Botrytis cinerea; peptide 1 μM
  Plate antimicrobial activity test Botrytis cinerea (level): 0
Botrytis cinerea; peptide 10 μM
  Plate antimicrobial activity test Botrytis cinerea (level): 0
Botrytis cinerea; peptide 100 μM
  Plate antimicrobial activity test Botrytis cinerea (level): 0
Fusarium oxysporum
  Plate antimicrobial activity test Fusarium oxysporum (level): 0
[2]; peptide 1 μM
  Plate antimicrobial activity test Collectotrichum orbiculare (level): 0
[2]; peptide 10 μM
  Plate antimicrobial activity test Collectotrichum orbiculare (level): 0
[2]; peptide 100 μM
  Plate antimicrobial activity test Collectotrichum orbiculare (level): 0

## TRKFW (listed as Solanum lycopersicum) [TsORF18-2-5aa-11]
[1]; peptide 1 μM
  Plate antimicrobial activity test Colletotrichum destructivum (level): 0
[1]; peptide 10 μM
  Plate antimicrobial activity test Colletotrichum destructivum (level): 0
[1]; peptide 100 μM
  Plate antimicrobial activity test Colletotrichum destructivum (level): 0
Pyricularia oryzae; peptide 1 μM
  Plate antimicrobial activity test Pyricularia oryzae (level): 0
Pyricularia oryzae; peptide 10 μM
  Plate antimicrobial activity test Pyricularia oryzae (level): 0
Pyricularia oryzae; peptide 100 μM
  Plate antimicrobial activity test Pyricularia oryzae (level): 0
Botrytis cinerea; peptide 1 μM
  Plate antimicrobial activity test Botrytis cinerea (level): 0
Botrytis cinerea; peptide 10 μM
  Plate antimicrobial activity test Botrytis cinerea (level): 0
Botrytis cinerea; peptide 100 μM
  Plate antimicrobial activity test Botrytis cinerea (level): 0
Fusarium oxysporum
  Plate antimicrobial activity test Fusarium oxysporum (level): 0
[2]; peptide 1 μM
  Plate antimicrobial activity test Collectotrichum orbiculare (level): 0
[2]; peptide 10 μM
  Plate antimicrobial activity test Collectotrichum orbiculare (level): 0
[2]; peptide 100 μM
  Plate antimicrobial activity test Collectotrichum orbiculare (level): 0

## AFSERTRK (listed as Solanum lycopersicum) [TsORF18-2-8aa-6]
[1]; peptide 1 μM
  Plate antimicrobial activity test Colletotrichum destructivum (level): 0
[1]; peptide 10 μM
  Plate antimicrobial activity test Colletotrichum destructivum (level): 0
[1]; peptide 100 μM
  Plate antimicrobial activity test Colletotrichum destructivum (level): 0
Pyricularia oryzae; peptide 1 μM
  Plate antimicrobial activity test Pyricularia oryzae (level): 0
Pyricularia oryzae; peptide 10 μM
  Plate antimicrobial activity test Pyricularia oryzae (level): 0
Pyricularia oryzae; peptide 100 μM
  Plate antimicrobial activity test Pyricularia oryzae (level): 0
Botrytis cinerea; peptide 1 μM
  Plate antimicrobial activity test Botrytis cinerea (level): 0
Botrytis cinerea; peptide 10 μM
  Plate antimicrobial activity test Botrytis cinerea (level): 0
Botrytis cinerea; peptide 100 μM
  Plate antimicrobial activity test Botrytis cinerea (level): 0
Fusarium oxysporum
  Plate antimicrobial activity test Fusarium oxysporum (level): 0
[2]; peptide 1 μM
  Plate antimicrobial activity test Collectotrichum orbiculare (level): 0
[2]; peptide 10 μM
  Plate antimicrobial activity test Collectotrichum orbiculare (level): 0
[2]; peptide 100 μM
  Plate antimicrobial activity test Collectotrichum orbiculare (level): 0

## FPAFSERT (listed as Solanum lycopersicum) [TsORF18-2-8aa-4]
[1]; peptide 1 μM
  Plate antimicrobial activity test Colletotrichum destructivum (level): 0
[1]; peptide 10 μM
  Plate antimicrobial activity test Colletotrichum destructivum (level): 0
[1]; peptide 100 μM
  Plate antimicrobial activity test Colletotrichum destructivum (level): 0
Pyricularia oryzae; peptide 1 μM
  Plate antimicrobial activity test Pyricularia oryzae (level): 0
Pyricularia oryzae; peptide 10 μM
  Plate antimicrobial activity test Pyricularia oryzae (level): 0
Pyricularia oryzae; peptide 100 μM
  Plate antimicrobial activity test Pyricularia oryzae (level): 0
Botrytis cinerea; peptide 1 μM
  Plate antimicrobial activity test Botrytis cinerea (level): 0
Botrytis cinerea; peptide 10 μM
  Plate antimicrobial activity test Botrytis cinerea (level): 0
Botrytis cinerea; peptide 100 μM
  Plate antimicrobial activity test Botrytis cinerea (level): 0
Fusarium oxysporum
  Plate antimicrobial activity test Fusarium oxysporum (level): 0
[2]; peptide 1 μM
  Plate antimicrobial activity test Collectotrichum orbiculare (level): 0
[2]; peptide 10 μM
  Plate antimicrobial activity test Collectotrichum orbiculare (level): 0
[2]; peptide 100 μM
  Plate antimicrobial activity test Collectotrichum orbiculare (level): 0

## SERTR (listed as Solanum lycopersicum) [TsORF18-2-5aa-8]
[1]; peptide 1 μM
  Plate antimicrobial activity test Colletotrichum destructivum (level): 0
[1]; peptide 10 μM
  Plate antimicrobial activity test Colletotrichum destructivum (level): 0
[1]; peptide 100 μM
  Plate antimicrobial activity test Colletotrichum destructivum (level): 0
Pyricularia oryzae; peptide 1 μM
  Plate antimicrobial activity test Pyricularia oryzae (level): 0
Pyricularia oryzae; peptide 10 μM
  Plate antimicrobial activity test Pyricularia oryzae (level): 0
Pyricularia oryzae; peptide 100 μM
  Plate antimicrobial activity test Pyricularia oryzae (level): 0
Botrytis cinerea; peptide 1 μM
  Plate antimicrobial activity test Botrytis cinerea (level): 0
Botrytis cinerea; peptide 10 μM
  Plate antimicrobial activity test Botrytis cinerea (level): 0
Botrytis cinerea; peptide 100 μM
  Plate antimicrobial activity test Botrytis cinerea (level): 0
Fusarium oxysporum
  Plate antimicrobial activity test Fusarium oxysporum (level): 0
[2]; peptide 1 μM
  Plate antimicrobial activity test Collectotrichum orbiculare (level): 0
[2]; peptide 10 μM
  Plate antimicrobial activity test Collectotrichum orbiculare (level): 0
[2]; peptide 100 μM
  Plate antimicrobial activity test Collectotrichum orbiculare (level): 0

## YYGFP (listed as Solanum lycopersicum) [TsORF18-2-5aa-1]
[1]; peptide 1 μM
  Plate antimicrobial activity test Colletotrichum destructivum (level): 0
[1]; peptide 10 μM
  Plate antimicrobial activity test Colletotrichum destructivum (level): 0
[1]; peptide 100 μM
  Plate antimicrobial activity test Colletotrichum destructivum (level): 0
Pyricularia oryzae; peptide 1 μM
  Plate antimicrobial activity test Pyricularia oryzae (level): 0
Pyricularia oryzae; peptide 10 μM
  Plate antimicrobial activity test Pyricularia oryzae (level): 0
Pyricularia oryzae; peptide 100 μM
  Plate antimicrobial activity test Pyricularia oryzae (level): 0
Botrytis cinerea; peptide 1 μM
  Plate antimicrobial activity test Botrytis cinerea (level): 0
Botrytis cinerea; peptide 10 μM
  Plate antimicrobial activity test Botrytis cinerea (level): 0
Botrytis cinerea; peptide 100 μM
  Plate antimicrobial activity test Botrytis cinerea (level): 0
Fusarium oxysporum
  Plate antimicrobial activity test Fusarium oxysporum (level): 0
[2]; peptide 1 μM
  Plate antimicrobial activity test Collectotrichum orbiculare (level): 0
[2]; peptide 10 μM
  Plate antimicrobial activity test Collectotrichum orbiculare (level): 0
[2]; peptide 100 μM
  Plate antimicrobial activity test Collectotrichum orbiculare (level): 0

## SERTRKFW (listed as Solanum lycopersicum) [TsORF18-2-8aa-8]
[1]; peptide 1 μM
  Plate antimicrobial activity test Colletotrichum destructivum (level): 0
[1]; peptide 10 μM
  Plate antimicrobial activity test Colletotrichum destructivum (level): 0
[1]; peptide 100 μM
  Plate antimicrobial activity test Colletotrichum destructivum (level): 0
Pyricularia oryzae; peptide 1 μM
  Plate antimicrobial activity test Pyricularia oryzae (level): 0
Pyricularia oryzae; peptide 10 μM
  Plate antimicrobial activity test Pyricularia oryzae (level): 0
Pyricularia oryzae; peptide 100 μM
  Plate antimicrobial activity test Pyricularia oryzae (level): 0
Botrytis cinerea; peptide 1 μM
  Plate antimicrobial activity test Botrytis cinerea (level): 0
Botrytis cinerea; peptide 10 μM
  Plate antimicrobial activity test Botrytis cinerea (level): 0
Botrytis cinerea; peptide 100 μM
  Plate antimicrobial activity test Botrytis cinerea (level): 0
Fusarium oxysporum
  Plate antimicrobial activity test Fusarium oxysporum (level): 0
[2]; peptide 1 μM
  Plate antimicrobial activity test Collectotrichum orbiculare (level): 0
[2]; peptide 10 μM
  Plate antimicrobial activity test Collectotrichum orbiculare (level): 0
[2]; peptide 100 μM
  Plate antimicrobial activity test Collectotrichum orbiculare (level): 0
